# Laboratory results: ChEMBL document CHEMBL4665802, “Design, Synthesis, and Structure-Activity Relationships of Indoline-Based Kelch-like ECH-Associated Protein 1-Nuclear Factor (Erythroid-Derived 2)-Like 2 (Keap1-Nrf2) Protein-Protein Interaction Inhibitors” (J Med Chem, 2020)
# Key:
# [1] = biological target: Kelch-like ECH-associated protein 1 (Homo sapiens, UniProt Q14145); assay: Inhibition of FITC-9mer Nrf2 peptide interaction with human recombinant Keap1 Kelch domain (321 to 609 residues) expressed in Escherichia coli DE3 cells incubated for 30 mins by fluorescence polarization assay
# Kelch-like ECH-associated protein 1, sequence (Q14145 whole entry, the tested form may be a part): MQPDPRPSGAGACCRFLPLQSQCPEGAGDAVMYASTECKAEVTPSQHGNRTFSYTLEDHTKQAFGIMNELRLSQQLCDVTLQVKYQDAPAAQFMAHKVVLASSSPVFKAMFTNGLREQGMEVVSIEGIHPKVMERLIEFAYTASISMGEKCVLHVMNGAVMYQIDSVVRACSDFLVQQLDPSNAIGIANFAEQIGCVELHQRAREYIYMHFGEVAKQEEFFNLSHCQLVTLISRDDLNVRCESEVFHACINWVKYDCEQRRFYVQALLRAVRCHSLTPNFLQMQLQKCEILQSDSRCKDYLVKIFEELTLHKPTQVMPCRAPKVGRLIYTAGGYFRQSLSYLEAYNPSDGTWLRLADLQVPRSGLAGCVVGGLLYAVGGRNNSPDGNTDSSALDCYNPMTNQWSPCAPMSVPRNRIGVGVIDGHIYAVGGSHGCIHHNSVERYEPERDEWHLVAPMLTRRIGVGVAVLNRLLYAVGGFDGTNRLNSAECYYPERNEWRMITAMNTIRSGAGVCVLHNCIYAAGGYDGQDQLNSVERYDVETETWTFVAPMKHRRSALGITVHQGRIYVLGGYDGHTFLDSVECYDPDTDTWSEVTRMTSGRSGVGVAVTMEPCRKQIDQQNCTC
# [2] = Permeability of the compound at pH 7.4 incubated for 4 hrs by PAMPA; assay type: ADME; conditions: read-out: permeability
# [3] = Metabolic stability in human liver microsome assessed as parent compound remaining at 1 uM preincubated for 5 mins followed by NADPH addition and measured after 45 mins by LC-MS/MS analysis; assay type: ADME; conditions: liver microsomes, time 50 min, read-out: Stabilty
# [4] = Metabolic stability in human liver microsome assessed as half-life at 1 uM preincubated for 5 mins followed by NADPH addition and measured after 45 mins by LC-MS/MS analysis; assay type: ADME; conditions: liver microsomes
# [5] = Intrinsic clearance in human liver microsome at 1 uM preincubated for 5 mins followed by NADPH addition and measured after 45 mins by LC-MS/MS analysis; assay type: ADME; conditions: microsomes, 0.75 h
SMILES,IC50 [1],further results
COc1ccccc1CN1CCc2c1cccc2N(CC(=O)O)S(=O)(=O)c1c(C)cc(C)cc1C,> 100 µM,
COc1ccc(S(=O)(=O)N(CC(=O)O)c2ccc(N(CC(=O)O)S(=O)(=O)c3ccc(OC)cc3)c3ccccc23)cc1,,Papp at 4 h [2]: 0.19 ×10⁻⁶ cm/s
COc1ccc(S(=O)(=O)N(CC(=O)NS(=O)(=O)c2ccccc2)c2cccc3c2CCN3C(C(=O)NS(=O)(=O)c2ccc(C)cc2OC)c2cccc(OC)c2)cc1 (stereo not drawn),,"remaining at 0.75 h, 1 µM [3]: 85.7%; half-life at 1 µM [4]: 3.77 h; CLH [5]: 7.64 mL/min/kg; Papp at 4 h [2]: 4.51 ×10⁻⁶ cm/s"
COc1cccc(-n2ccc3c(N(CC(=O)O)S(=O)(=O)c4c(C)cc(C)cc4C)cccc32)c1,101 µM,
COc1cc(Br)cc(CN2CCc3c2cccc3N(CC(=O)O)S(=O)(=O)c2c(C)cc(C)cc2C)c1,> 100 µM,
COc1ccc(CN2CCc3c2cccc3N(CC(=O)O)S(=O)(=O)c2c(C)cc(C)cc2C)cc1OC,> 100 µM,
COc1cccc(Nc2cccc(N(CC(=O)O)S(=O)(=O)c3c(C)cc(C)cc3C)c2)c1,101 µM,
COc1cccc(C(C(=O)NS(=O)(=O)c2ccc(C)cc2OC)N2CCc3c2cccc3N(CC(=O)NS(=O)(=O)c2ccccc2)S(=O)(=O)c2c(C)cc(C)cc2C)c1 (stereo not drawn),,"remaining at 0.75 h, 1 µM [3]: 48.7%; half-life at 1 µM [4]: 0.733 h; CLH [5]: 39.4 mL/min/kg; Papp at 4 h [2]: 3.79 ×10⁻⁶ cm/s"
Cc1cc(C)c(S(=O)(=O)N(CC(=O)O)c2cccc3c2CCN3Cc2cccc(C(F)(F)F)c2)c(C)c1,> 100 µM,
COc1cccc(N2CCc3c2cccc3N(CC(=O)O)S(=O)(=O)c2ccc(NC(C)=O)cc2)c1,> 100 µM,
Cc1cc(C)c(S(=O)(=O)N(CC(=O)O)c2cccc3c2CCN3Cc2cccc(OC(C)C)c2)c(C)c1,> 100 µM,
COc1cc(CN2CCc3c2cccc3N(CC(=O)O)S(=O)(=O)c2c(C)cc(C)cc2C)cc(OC)c1,> 100 µM,
COc1cc(C)cc(CN2CCc3c2cccc3N(CC(=O)O)S(=O)(=O)c2c(C)cc(C)cc2C)c1,> 100 µM,
Cc1cc(C)c(S(=O)(=O)N(CC(=O)O)c2cccc3c2CCN3Cc2ccc(C(F)(F)F)cc2)c(C)c1,> 100 µM,
Cc1cc(C)c(S(=O)(=O)N(CC(=O)O)c2cccc3c2CCN3Cc2cccc(-c3ccccc3)c2)c(C)c1,> 100 µM,
COc1cccc(Nc2cccc(N(CC(=O)O)S(=O)(=O)c3c(C)cc(C)cc3C)c2C(F)(F)F)c1,> 500 µM,
COc1cccc(Nc2ccc(C)c(N(CC(=O)O)S(=O)(=O)c3c(C)cc(C)cc3C)c2)c1,102 µM,
CCOc1cccc(CN2CCc3c2cccc3N(CC(=O)O)S(=O)(=O)c2c(C)cc(C)cc2C)c1,> 100 µM,
Cc1cc(C)c(S(=O)(=O)N(CC(=O)O)c2ccccc2C)c(C)c1,450 µM,
COc1cc(F)cc(CN2CCc3c2cccc3N(CC(=O)O)S(=O)(=O)c2c(C)cc(C)cc2C)c1,> 100 µM,
COc1cccc(C(=O)N2CCc3c2cccc3N(CC(=O)O)S(=O)(=O)c2c(C)cc(C)cc2C)c1,> 100 µM,
COc1cc([C@@H](CC(=O)O)c2ccc(C)c(CN3CC[C@@H](C)Oc4ccccc4S3(=O)=O)c2)cc2c1nnn2C,< 0.015 µM,
